What all share (assay): Kinase selectivity, P33-radiolabeled assay
Assay type in all cases: biochemical
What all share (details): 10 μM ATP

For assay [1], the target named is T1, MRCKa/CDC42BPA (Homo sapiens, UniProt Q5VT25).
T1 construct: purchased Reaction Biology Corp
The method in brief: (§1)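 Duplicate single-concentration testing used 10 μM compound. The ATP concentration was also 10 μM.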

In assay [2] the target is T2, STK22D/TSSK1 (Homo sapiens, UniProt Q9BXA7).
T2 construct: purchased Reaction Biology Corp
T2 sequence (Q9BXA7 1-367): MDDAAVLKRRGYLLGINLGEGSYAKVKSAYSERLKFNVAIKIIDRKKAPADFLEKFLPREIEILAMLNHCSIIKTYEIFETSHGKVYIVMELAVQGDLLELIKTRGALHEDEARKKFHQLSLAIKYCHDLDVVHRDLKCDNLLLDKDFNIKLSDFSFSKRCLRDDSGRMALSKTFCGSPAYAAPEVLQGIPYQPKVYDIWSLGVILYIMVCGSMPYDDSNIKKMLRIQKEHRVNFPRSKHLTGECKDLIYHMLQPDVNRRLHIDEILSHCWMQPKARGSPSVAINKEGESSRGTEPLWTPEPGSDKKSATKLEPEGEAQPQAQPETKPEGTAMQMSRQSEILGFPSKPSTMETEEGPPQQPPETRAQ
The essentials:
as §1

The target in assay [3] is T3, MARK3 (Homo sapiens, UniProt P27448).
T3 construct: purchased Reaction Biology Corp
The method in brief: as §1

The target of assay [4] is T4, TNK1 (Homo sapiens, UniProt Q13470).
T4 construct: purchased Reaction Biology Corp
T4 sequence (Q13470 1-666): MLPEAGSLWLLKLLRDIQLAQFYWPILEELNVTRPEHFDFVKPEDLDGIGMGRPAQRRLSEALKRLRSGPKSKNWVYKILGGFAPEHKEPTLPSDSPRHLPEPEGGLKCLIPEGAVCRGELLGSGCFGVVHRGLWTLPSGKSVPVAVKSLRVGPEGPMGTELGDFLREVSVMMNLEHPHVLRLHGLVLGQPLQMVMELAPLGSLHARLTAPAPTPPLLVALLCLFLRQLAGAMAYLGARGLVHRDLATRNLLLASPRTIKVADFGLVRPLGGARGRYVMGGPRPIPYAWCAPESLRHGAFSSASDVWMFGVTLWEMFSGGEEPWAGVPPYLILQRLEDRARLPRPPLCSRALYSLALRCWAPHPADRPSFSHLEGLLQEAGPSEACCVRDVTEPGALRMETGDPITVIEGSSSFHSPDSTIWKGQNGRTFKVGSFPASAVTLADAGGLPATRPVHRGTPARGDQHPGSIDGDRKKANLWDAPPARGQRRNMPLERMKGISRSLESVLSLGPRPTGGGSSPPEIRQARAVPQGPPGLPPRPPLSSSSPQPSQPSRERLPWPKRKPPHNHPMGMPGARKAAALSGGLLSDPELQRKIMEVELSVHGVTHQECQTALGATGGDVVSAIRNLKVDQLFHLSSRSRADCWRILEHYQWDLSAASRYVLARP
The method in brief: as §1

Assay [5] addresses T5, CDK1/cyclin E (Homo sapiens, UniProt P06493).
T5 construct: purchased Reaction Biology Corp
The essentials: as §1

The target in assay [6] is T6, STK32C/YANK3 (Homo sapiens, UniProt Q86UX6).
T6 construct: purchased Reaction Biology Corp
The method in brief:
as §1

Assay [7] deals with T7, BMPR2 (Homo sapiens, UniProt Q13873).
T7 construct: purchased Reaction Biology Corp
T7 sequence (Q13873 27-1038): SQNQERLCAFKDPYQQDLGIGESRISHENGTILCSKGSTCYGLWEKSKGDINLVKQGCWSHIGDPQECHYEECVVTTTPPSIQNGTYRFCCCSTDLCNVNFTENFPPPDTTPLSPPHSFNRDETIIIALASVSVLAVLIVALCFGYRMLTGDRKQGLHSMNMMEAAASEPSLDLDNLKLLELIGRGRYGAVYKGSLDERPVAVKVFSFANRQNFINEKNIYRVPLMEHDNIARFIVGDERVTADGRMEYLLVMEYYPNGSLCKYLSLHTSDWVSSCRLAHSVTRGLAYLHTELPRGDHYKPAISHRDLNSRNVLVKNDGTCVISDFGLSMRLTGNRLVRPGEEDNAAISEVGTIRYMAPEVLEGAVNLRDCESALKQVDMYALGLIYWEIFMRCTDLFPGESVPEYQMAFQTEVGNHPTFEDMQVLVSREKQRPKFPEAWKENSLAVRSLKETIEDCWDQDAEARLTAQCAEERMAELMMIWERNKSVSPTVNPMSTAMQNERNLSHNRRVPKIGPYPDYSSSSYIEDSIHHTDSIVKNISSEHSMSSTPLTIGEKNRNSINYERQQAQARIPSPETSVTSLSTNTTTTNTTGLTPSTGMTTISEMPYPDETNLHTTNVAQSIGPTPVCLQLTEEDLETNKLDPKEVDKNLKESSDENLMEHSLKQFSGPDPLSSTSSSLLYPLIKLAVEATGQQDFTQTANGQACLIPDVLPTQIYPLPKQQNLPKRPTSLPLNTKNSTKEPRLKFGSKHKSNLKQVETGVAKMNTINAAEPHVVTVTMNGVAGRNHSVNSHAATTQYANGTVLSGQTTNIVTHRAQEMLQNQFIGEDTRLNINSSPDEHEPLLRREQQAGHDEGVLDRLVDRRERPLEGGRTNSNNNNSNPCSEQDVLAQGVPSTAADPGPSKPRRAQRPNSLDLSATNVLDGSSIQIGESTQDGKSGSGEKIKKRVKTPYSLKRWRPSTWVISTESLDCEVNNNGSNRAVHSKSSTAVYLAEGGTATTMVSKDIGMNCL
The method in brief: as §1

Where [8] appears, read: read-out: % Enzyme Activity (relative to DMSO controls) AVG.
The mark [9] stands for this setting: read-out: % Enzyme Activity (relative to DMSO controls) Data 1.
[10] abbreviates: read-out: % Enzyme Activity (relative to DMSO controls) Data 2.

Data on one molecule can be found in publication PMC4979471 (Cell Death Discovery, 2015).

Where two headings read alike, the source gives them in different places.

T1 sequence (Q5VT25 whole entry): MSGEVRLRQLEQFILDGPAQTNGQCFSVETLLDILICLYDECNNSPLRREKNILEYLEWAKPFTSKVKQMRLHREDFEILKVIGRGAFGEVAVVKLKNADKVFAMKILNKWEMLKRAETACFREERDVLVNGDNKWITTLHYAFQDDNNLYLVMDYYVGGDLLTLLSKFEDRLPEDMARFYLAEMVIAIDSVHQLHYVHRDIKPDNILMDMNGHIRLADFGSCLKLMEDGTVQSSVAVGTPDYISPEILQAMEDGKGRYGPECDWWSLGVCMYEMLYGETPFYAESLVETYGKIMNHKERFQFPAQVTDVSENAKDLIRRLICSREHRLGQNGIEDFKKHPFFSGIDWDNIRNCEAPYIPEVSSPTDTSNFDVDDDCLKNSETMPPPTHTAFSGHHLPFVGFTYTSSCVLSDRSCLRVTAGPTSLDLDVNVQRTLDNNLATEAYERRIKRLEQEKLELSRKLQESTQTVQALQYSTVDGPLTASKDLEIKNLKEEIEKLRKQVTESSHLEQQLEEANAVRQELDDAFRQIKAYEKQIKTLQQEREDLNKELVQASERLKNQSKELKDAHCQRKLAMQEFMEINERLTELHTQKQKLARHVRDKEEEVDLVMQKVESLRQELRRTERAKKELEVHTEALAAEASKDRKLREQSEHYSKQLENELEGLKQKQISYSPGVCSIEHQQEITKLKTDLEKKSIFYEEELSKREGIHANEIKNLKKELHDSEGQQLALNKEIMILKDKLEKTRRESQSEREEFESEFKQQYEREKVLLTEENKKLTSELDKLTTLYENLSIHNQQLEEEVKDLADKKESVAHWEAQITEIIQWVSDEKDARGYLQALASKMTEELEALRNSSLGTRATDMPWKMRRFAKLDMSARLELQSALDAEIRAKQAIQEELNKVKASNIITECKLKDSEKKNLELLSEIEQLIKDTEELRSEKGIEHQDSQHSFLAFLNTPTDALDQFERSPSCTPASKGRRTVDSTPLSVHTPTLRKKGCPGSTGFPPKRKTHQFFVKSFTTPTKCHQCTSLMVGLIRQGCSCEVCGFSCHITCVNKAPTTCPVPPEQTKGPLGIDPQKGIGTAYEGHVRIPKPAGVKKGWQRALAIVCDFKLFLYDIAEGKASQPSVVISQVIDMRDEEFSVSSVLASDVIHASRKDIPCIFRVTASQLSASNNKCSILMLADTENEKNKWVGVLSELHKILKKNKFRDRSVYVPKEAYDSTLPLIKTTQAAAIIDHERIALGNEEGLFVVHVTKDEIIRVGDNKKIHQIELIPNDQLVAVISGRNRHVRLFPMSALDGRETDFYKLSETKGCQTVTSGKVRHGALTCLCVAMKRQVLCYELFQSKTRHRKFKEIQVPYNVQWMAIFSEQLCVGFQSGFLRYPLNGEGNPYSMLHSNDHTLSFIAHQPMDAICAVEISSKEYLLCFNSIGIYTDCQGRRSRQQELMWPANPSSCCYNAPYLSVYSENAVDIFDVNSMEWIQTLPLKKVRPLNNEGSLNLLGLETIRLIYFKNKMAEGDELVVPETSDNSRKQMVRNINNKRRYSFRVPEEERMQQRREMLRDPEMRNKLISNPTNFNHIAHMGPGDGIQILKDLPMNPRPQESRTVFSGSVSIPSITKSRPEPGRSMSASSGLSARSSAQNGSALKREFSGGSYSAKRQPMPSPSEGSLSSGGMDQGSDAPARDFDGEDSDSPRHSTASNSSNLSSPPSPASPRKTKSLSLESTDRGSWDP
T3 sequence (P27448 whole entry): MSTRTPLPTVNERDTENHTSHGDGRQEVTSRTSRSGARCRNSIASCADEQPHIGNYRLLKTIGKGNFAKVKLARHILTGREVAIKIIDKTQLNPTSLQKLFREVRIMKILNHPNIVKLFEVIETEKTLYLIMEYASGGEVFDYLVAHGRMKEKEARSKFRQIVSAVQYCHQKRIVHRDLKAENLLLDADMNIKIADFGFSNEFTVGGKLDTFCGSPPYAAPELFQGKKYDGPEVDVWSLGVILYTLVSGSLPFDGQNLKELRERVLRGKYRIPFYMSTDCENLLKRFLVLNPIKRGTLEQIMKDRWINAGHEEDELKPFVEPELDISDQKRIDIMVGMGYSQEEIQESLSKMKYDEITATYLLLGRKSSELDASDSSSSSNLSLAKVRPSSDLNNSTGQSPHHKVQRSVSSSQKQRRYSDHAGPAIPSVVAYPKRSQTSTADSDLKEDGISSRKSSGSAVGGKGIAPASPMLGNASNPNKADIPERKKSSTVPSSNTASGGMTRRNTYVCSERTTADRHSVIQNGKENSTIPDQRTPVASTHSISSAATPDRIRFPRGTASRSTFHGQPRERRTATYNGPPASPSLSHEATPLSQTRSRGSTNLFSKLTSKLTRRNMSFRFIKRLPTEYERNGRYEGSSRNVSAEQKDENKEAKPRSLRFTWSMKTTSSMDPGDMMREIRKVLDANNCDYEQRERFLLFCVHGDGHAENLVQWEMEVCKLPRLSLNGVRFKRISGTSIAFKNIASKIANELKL
T6 sequence (Q86UX6 whole entry): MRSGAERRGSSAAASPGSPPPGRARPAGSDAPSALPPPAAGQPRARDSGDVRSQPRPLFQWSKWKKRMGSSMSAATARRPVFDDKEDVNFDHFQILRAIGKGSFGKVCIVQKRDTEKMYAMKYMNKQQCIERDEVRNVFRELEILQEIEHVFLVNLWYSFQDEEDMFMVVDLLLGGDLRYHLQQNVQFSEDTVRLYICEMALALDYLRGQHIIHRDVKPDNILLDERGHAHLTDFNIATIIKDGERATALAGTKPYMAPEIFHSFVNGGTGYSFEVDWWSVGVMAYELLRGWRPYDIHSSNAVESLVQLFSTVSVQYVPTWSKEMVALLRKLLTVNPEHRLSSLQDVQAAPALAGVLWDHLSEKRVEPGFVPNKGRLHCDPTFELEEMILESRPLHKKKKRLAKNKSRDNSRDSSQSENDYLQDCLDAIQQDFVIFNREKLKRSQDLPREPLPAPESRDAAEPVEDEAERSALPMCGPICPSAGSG
T5 sequence (P06493 whole entry): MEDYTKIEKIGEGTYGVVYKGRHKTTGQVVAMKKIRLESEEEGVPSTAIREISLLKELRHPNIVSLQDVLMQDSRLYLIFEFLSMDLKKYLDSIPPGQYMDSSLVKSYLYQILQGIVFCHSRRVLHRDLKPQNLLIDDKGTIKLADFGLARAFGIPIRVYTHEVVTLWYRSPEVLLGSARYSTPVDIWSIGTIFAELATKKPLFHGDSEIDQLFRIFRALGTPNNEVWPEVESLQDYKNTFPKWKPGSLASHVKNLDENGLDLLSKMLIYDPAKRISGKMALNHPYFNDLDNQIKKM
T5 sequence (P24864 whole entry partner): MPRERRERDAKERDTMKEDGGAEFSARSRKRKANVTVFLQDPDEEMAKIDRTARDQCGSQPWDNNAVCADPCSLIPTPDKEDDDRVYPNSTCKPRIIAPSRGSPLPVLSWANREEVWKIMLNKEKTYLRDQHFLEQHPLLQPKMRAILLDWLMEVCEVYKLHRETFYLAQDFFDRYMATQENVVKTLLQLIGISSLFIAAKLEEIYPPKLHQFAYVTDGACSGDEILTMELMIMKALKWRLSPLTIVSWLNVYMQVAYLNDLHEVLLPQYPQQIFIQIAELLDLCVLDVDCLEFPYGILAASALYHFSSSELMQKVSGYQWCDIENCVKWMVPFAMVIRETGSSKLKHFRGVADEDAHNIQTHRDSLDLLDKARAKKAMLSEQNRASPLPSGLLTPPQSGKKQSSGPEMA

In the case of `CC(C)(C)C(=O)N1N=CC[C@H]1c1ccccc1` [GSK′963], the remaining activity at 10 µM was found to be 111% in assay [1] (setting [8]); 110% in assay [1] (setting [9]); 112% in assay [1] (setting [10]); 110% in assay [2] (setting [8]); 108% in assay [2] (setting [9]); 112% in assay [2] (setting [10]). Further, the remaining activity at 10 µM worked out at 100% in assay [3] (setting [8]); 102% in assay [3] (setting [9]); 98.3% in assay [3] (setting [10]); 98.8% in assay [4] (setting [8]); 100% in assay [4] (setting [9]); 97.2% in assay [4] (setting [10]). In addition, the remaining activity at 10 µM in assay [5] (setting [8]) is 98.2%; in assay [5] (setting [9]), 102%; in assay [5] (setting [10]) it was 94.7%; in assay [6] (setting [8]), 98.9%; in assay [6] (setting [9]), 97.5%; in assay [6] (setting [10]), 100%. For the same molecule, the remaining activity at 10 µM stood at 103% in assay [7] (setting [8]), 102% in assay [7] (setting [9]) and 103% in assay [7] (setting [10]).
